In ChEMBL document CHEMBL1811872, “Tryptophan 2,3-dioxygenase (TDO) inhibitors. 3-(2-(pyridyl)ethenyl)indoles as potential anticancer immunomodulators” (J Med Chem, 2011):
The source made the active and inactive calls. The calls are words filed in the database; no cut-off is given here.

Legend:
[1] = Displacement of [3H]prazosin from adrenergic alpha1 receptor at 10 uM relative to control
[2] = biological target: Beta-1 adrenergic receptor (Homo sapiens) (UniProt P08588); assay: Displacement of [3H](-)-CGP12177 from human adrenergic beta1 receptor at 10 uM relative to control
[3] = biological target: T1, 5-hydroxytryptamine receptor 1A (Homo sapiens) (UniProt P08908); assay: Displacement of [3H]8-OH-DPAT from human 5HT1A receptor at 10 uM relative to control
T1 sequence (whole entry): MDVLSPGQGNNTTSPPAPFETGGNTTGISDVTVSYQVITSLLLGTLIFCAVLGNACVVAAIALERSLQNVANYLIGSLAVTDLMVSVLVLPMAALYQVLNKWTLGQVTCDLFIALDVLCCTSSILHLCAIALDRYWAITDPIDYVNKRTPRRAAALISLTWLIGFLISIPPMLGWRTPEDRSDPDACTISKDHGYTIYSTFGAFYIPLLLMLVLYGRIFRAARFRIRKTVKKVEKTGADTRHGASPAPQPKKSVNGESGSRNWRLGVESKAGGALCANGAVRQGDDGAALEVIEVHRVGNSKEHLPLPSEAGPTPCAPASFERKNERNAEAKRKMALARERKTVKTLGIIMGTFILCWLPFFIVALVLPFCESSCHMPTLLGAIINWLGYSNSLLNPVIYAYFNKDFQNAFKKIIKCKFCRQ

[4] = biological target: 5-hydroxytryptamine receptor 2B (Homo sapiens) (UniProt P41595); assay: Displacement of [125I](+/-)-DOI from human 5HT2B receptor at 10 uM relative to control
[5] = biological target: 5-hydroxytryptamine receptor 7 (Homo sapiens) (UniProt P34969); assay: Displacement of [3H]LSD from human 5HT7 receptor at 10 uM relative to control
[6] = biological target: Sodium-dependent dopamine transporter (Homo sapiens) (UniProt Q01959); assay: Displacement of [3H]BTCP from human DA transporter at 10 uM relative to control
[7] = biological target: T2, 5-hydroxytryptamine receptor 3A (Homo sapiens) (UniProt P46098); assay: Displacement of [3H]BRL43694 from human 5HT3 receptor at 10 uM relative to control
T2 sequence (whole entry): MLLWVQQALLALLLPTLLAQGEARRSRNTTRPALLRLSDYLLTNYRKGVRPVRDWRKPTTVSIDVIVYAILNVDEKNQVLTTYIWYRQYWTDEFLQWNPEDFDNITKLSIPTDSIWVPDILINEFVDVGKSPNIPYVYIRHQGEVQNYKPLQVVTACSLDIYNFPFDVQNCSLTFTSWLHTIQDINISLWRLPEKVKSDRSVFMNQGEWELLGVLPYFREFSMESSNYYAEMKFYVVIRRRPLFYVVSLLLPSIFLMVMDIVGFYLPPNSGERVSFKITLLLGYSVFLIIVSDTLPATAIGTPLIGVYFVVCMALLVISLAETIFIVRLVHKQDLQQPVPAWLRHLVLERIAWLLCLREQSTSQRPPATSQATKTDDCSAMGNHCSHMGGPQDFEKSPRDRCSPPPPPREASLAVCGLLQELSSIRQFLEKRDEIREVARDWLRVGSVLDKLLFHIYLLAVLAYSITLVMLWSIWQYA

[8] = biological target: 5-hydroxytryptamine receptor 1B (Homo sapiens) (UniProt P28222); assay: Displacement of [125I]CYP from human 5HT1B receptor at 10 uM relative to control
[9] = biological target: Sodium-dependent noradrenaline transporter (Homo sapiens) (UniProt P23975); assay: Displacement of [3H]nisoxetine from human NE transporter at 10 uM relative to control
[10] = biological target: D(2) dopamine receptor (Homo sapiens) (UniProt P14416); assay: Displacement of [3H]methyl-spiperone from human dopamine D2s receptor at 10 uM relative to control
[11] = Displacement of [3H]RX821002 from adrenergic alpha2 receptor at 10 uM relative to control
[12] = biological target: Beta-2 adrenergic receptor (Homo sapiens) (UniProt P07550); assay: Displacement of [3H](-)-CGP12177 from human adrenergic beta2 receptor at 10 uM relative to control
[13] = biological target: 5-hydroxytryptamine receptor 2A (Homo sapiens) (UniProt P28223); assay: Displacement of [3H]ketanserin from human 5HT2A receptor at 10 uM relative to control
[14] = biological target: Indoleamine 2,3-dioxygenase 1 (Homo sapiens) (UniProt P14902); assay: Inhibition of IDO at 10 uM
[15] = biological target: Sodium-dependent serotonin transporter (Homo sapiens) (UniProt P31645); assay: Displacement of [3H]imipramine from human 5HT transporter at 10 uM relative to control
[16] = biological target: Melatonin receptor type 1A (Homo sapiens) (UniProt P48039); assay: Displacement of [125I]2-iodomelatonin from human MT1 receptor at 10 uM relative to control
[17] = biological target: D(1A) dopamine receptor (Homo sapiens) (UniProt P21728); assay: Displacement of [3H]SCH23390 from human dopamine D1 receptor at 10 uM relative to control
[18] = tested on: P815B; assay: Antitumor activity against mouse P815B cells expressing TDO xenografted in immunized mouse assessed as tumor growth inhibition at 160 mg/kg/day, po administered with water; assay type: functional, organism-based
[19] = biological target: 5-hydroxytryptamine receptor 6 (Homo sapiens) (UniProt P50406); assay: Displacement of [3H]LSD from human 5HT6 receptor at 10 uM relative to control
[20] = biological target: 5-hydroxytryptamine receptor 5A (Homo sapiens) (UniProt P47898); assay: Displacement of [3H]LSD from human 5HT5A receptor at 10 uM relative to control
Sequence of 5-hydroxytryptamine receptor 5A (Homo sapiens) (P47898 whole entry): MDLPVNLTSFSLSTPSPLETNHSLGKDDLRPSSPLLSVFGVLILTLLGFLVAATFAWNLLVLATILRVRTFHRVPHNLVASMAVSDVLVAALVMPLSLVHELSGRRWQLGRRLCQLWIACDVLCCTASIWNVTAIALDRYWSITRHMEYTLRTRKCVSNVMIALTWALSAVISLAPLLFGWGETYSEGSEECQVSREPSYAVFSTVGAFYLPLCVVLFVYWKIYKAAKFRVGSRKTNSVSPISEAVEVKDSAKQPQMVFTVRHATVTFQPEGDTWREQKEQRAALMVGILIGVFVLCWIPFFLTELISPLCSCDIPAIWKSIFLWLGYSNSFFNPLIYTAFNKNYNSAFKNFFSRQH

Sequence of D(2) dopamine receptor (Homo sapiens) (P14416 whole entry): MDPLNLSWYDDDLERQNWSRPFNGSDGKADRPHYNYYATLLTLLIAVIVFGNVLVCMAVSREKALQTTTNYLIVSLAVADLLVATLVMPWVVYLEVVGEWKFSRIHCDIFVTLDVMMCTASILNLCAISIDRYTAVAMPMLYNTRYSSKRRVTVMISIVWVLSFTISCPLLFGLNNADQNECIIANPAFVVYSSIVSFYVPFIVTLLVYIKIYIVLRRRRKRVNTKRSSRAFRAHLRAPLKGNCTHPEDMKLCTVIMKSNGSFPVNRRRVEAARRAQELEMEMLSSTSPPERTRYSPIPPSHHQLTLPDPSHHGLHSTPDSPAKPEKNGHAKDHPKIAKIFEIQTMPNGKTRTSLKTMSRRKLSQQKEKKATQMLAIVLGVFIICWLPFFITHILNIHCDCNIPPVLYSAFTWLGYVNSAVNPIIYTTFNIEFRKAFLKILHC
Sequence of Melatonin receptor type 1A (Homo sapiens) (P48039 whole entry): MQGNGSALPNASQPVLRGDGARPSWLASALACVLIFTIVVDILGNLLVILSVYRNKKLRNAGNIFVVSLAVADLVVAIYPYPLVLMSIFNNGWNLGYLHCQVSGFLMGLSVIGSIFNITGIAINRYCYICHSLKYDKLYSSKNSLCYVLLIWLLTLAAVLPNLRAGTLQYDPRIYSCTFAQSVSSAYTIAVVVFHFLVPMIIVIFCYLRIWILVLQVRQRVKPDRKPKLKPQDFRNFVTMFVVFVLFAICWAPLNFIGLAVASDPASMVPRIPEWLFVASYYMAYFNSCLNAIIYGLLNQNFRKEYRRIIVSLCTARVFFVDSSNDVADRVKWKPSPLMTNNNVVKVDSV
Sequence of Indoleamine 2,3-dioxygenase 1 (Homo sapiens) (P14902 whole entry, looked up): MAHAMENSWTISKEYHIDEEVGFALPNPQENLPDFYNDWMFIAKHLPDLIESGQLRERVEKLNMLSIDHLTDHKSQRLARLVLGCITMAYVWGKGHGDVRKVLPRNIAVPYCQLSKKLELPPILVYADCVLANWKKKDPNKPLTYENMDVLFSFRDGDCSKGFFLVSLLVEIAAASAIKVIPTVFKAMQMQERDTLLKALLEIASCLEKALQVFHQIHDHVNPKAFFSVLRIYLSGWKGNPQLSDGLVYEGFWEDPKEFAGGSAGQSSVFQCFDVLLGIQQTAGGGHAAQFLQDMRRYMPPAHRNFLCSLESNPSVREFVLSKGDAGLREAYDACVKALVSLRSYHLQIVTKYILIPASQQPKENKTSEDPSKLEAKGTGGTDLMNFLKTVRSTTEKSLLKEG
Sequence of D(1A) dopamine receptor (Homo sapiens) (P21728 whole entry): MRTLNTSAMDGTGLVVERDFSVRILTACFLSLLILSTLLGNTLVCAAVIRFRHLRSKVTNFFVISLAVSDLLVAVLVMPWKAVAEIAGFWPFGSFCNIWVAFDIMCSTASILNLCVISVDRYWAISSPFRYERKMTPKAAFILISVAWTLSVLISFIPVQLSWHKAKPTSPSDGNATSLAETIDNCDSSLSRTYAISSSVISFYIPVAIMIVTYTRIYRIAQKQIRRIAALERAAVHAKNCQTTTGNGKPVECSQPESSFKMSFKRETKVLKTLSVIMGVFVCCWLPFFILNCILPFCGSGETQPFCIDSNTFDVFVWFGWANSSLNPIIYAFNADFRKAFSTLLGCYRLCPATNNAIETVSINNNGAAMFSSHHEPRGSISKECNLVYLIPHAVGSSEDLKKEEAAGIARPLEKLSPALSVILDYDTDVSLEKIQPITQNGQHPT
Sequence of 5-hydroxytryptamine receptor 2B (Homo sapiens) (P41595 whole entry): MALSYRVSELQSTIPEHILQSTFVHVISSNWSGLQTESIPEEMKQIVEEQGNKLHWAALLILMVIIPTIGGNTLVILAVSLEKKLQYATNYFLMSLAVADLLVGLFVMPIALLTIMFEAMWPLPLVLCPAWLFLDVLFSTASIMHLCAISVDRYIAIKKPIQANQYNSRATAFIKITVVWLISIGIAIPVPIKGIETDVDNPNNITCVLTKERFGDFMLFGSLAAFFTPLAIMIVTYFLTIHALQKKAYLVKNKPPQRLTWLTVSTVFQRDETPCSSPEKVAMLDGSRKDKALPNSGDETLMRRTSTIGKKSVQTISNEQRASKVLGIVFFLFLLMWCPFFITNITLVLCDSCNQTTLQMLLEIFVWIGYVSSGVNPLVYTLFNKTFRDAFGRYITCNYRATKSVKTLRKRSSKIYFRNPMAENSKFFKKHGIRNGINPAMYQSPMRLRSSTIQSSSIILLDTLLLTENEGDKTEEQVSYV
Sequence of 5-hydroxytryptamine receptor 1B (Homo sapiens) (P28222 whole entry): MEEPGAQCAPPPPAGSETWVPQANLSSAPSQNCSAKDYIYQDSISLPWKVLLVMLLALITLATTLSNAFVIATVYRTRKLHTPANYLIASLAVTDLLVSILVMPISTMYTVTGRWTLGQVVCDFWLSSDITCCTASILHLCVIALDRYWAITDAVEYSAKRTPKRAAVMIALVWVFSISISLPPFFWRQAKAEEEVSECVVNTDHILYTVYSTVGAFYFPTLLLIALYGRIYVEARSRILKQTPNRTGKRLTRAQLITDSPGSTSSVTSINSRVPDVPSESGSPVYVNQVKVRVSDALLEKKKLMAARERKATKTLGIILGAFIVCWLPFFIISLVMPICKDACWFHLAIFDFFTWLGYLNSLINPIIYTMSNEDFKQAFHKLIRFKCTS
Sequence of Beta-1 adrenergic receptor (Homo sapiens) (P08588 whole entry, looked up): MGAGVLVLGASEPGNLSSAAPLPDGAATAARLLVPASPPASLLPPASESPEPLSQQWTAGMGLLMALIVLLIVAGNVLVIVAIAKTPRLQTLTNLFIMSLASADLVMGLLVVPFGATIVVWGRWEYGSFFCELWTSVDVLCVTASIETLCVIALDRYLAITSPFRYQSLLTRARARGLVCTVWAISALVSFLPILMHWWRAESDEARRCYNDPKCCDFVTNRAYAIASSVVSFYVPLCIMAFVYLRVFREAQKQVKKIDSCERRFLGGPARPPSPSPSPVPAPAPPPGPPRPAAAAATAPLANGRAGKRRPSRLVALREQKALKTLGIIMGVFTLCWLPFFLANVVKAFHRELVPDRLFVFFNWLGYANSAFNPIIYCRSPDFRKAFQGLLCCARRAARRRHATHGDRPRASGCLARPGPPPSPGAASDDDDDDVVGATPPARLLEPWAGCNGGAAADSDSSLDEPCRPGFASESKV
Sequence of 5-hydroxytryptamine receptor 7 (Homo sapiens) (P34969 whole entry): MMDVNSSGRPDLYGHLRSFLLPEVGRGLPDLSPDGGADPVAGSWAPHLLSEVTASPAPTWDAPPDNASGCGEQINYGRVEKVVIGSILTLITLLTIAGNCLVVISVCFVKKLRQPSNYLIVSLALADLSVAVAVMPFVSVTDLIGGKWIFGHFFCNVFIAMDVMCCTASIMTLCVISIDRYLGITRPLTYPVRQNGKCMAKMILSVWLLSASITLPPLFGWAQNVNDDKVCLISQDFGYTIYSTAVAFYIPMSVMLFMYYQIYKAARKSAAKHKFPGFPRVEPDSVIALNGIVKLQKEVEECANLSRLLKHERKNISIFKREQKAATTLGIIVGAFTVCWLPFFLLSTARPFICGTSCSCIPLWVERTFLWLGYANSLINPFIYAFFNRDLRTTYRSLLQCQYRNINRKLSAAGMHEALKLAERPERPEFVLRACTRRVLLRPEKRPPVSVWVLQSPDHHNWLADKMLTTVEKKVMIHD
Sequence of 5-hydroxytryptamine receptor 2A (Homo sapiens) (P28223 whole entry): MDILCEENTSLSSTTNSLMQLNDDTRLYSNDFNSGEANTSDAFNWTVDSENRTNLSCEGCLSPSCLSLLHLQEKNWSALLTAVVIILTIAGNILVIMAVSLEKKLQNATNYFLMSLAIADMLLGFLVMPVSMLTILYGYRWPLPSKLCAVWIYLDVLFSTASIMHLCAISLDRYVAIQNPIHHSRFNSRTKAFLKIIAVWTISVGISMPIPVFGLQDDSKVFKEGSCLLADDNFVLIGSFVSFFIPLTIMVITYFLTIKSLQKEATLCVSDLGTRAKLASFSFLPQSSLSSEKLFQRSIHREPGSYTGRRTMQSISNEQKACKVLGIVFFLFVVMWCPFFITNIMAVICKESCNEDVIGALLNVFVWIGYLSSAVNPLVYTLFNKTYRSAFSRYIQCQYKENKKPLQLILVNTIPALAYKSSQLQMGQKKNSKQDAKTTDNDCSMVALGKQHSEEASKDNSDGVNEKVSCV
Sequence of 5-hydroxytryptamine receptor 6 (Homo sapiens) (P50406 whole entry): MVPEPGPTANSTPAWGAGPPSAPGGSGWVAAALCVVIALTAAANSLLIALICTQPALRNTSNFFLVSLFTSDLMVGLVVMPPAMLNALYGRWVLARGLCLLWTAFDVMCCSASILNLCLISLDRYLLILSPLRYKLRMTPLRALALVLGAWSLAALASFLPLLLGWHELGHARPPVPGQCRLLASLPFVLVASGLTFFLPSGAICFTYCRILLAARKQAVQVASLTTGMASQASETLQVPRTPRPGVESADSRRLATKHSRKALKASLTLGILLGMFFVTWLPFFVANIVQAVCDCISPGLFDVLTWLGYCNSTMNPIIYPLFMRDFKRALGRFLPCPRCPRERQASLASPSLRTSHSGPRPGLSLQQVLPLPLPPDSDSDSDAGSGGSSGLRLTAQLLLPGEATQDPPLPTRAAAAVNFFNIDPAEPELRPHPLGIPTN

For `Fc1ccc2c(/C=C/c3nnn[nH]3)c[nH]c2c1`, the inhibition [1] was under 10%, the inhibition [2] was 14% and the inhibition [3] was under 10%. The inhibition [4] was under 10%, the inhibition [5] was under 10% and the inhibition [6] was under 10%. It also gave an inhibition [7] of under 10%, an inhibition [8] of under 10% and an inhibition [9] of under 10%. For the same compound, the inhibition [10] was under 10%, the inhibition [11] was under 10% and the inhibition [12] was under 10%. The inhibition [13] was under 10%, the inhibition [14] was under 10% and the inhibition [15] was 26%. The inhibition [16] was under 10%, the inhibition [17] was under 10% and the Activity [18] was “Active”. It also gave an inhibition [19] of under 10% and an inhibition [20] of under 10%.
